US20110124644A1, “METHODS OF DIAGNOSING AND CHARACTERIZING CANNABINOID SIGNALING IN CROHN'S DISEASE” (CEDARS-SINAI MEDICAL CENTER, priority 2008, published 2011)

Experiments:
[1] = system: murine model of acute colitis (DSS, C3H/HeJ mice); assay: Acute colitis model: dextran sodium sulfate (DSS) colitis; type: in vivo, mouse; conditions: 3.5% DSS; 1 mg/kg i.p. from two days before DSS, then every other day
Description: FIG. 11 (a) depicts, in accordance with an embodiment herein, the effect of CB2 agonist on murine model of acute colitis. Groups of 5 wildtype C3H/HeJ mice were challenged with either DSS 3.5% or acidified water and injected intraperitoneally with CB2 agonist (AM1241(AM)) or antagonist (SR144928 (SR)) or vehicle control (DMSO (D) for AM1241, or EtOH (E) for SR144928) and monitored for weight loss. Intestinal sections were scored histologically at day 10. (b) and (c.) depicts the comparison of DSS colitis in CB2−/− and WT mice, with (b) weight loss and (c) histologic scoring. This is representative of three or more independent experiments.
3.5% Dextran sulfate sodium (prepared in acidified drinking water) was obtained from MP Biomedicals, Inc (Solon, Ohio). Acidified drinking water of colitis-induced mice was replaced with DSS solution for a total of eight days. Controls were given standard acidified drinking water. All mice were sacrificed on day 12, at which time the DSS-treated mice had lost approximately 20% of their body weight. Experiments were performed in duplicate, with groups of 6 mice in each treatment arm. AM1241 (Sigma-Aldrich, MO, in DMSO, 1 mg/mL) was suspended in 250 μL sterile 0.9% saline and injected intraperitoneally (i.p.) at a dose of 1 mg/kg beginning two days prior to the administration of DSS (or acidified drinking water in the control group) and then every other day until the mice were euthanized. […]
Colitis was quantified by both weight loss and histology of intestinal sections. […] Each section was then scored by one blinded pathologist using a standard experimental colitis scoring system.
The effect of CB2-specific agonist in the setting of acute colitis was evaluated using dextran sodium sulfate (DSS), an ingested agent which induces acute, non-T cell mediated colitis (weight loss and bloody diarrhea) within three to five days. Mice were pre-treated with AM1241 or vehicle control, and then monitored for the level of acute colitis induced by DSS ingestion. […]

CB2 receptor = assay: CB2 agonist (AM1241) inhibition of forskolin-stimulated cAMP production in patient lymphoblastoid cell lines, ELISA; type: cell-based, human; conditions: 250 nM AM1241; 25 nM forskolin; Crohn's disease patient LCLs
Description: FIG. 7 depicts, in accordance with an embodiment herein, CB2 receptor protein expression and function. Flow cytometry data derived from staining of 40 Crohn's disease patient lymphoblastoid cell lines with monoclonal CB2 receptor (IgG2A) was generated. LCLs from patients with Crohn's disease were grown in culture and plated 1×10^6 per well on a 96 well plate. These cells were then incubated for 20 minutes with 10 mM IBMX, a phosphodiesterase inhibitor, and washed. Cells were incubated in the presence of various concentrations of forskolin or media control with or without the addition of 250 nM AM1241. Samples were run in triplicate. […] Plates were frozen at −20 degrees and lysates assayed the following day for cAMP concentration using a commercial ELISA kit (R and D) and microwell ELISA plate reader.
A CNR2 candidate gene case-control analysis was performed with 449 patients with Crohn's disease, 215 with ulcerative colitis, and 201 controls. […] EBV immortalized lymphoblastoid cell lines (LCLs) were analyzed for CB2 receptor by flow cytometry, and for CB2 receptor function (Gi-mediated adenylate cyclase inhibition) by CB2 agonist (AM1241) inhibition of forskolin-stimulated cAMP production, measured by ELISA.
To assess the LCL response to CB2 specific agonist, intracellular cAMP was quantified using a standard ELISA kit (R and D Systems). […]

[2] = system: murine model of immune colitis (Rag1 −/− mice); assay: Immune colitis model: transfer of Gαi2−/− T cells into Rag1 −/− mice; type: in vivo, mouse; conditions: i.p. every other day, vs DMSO vehicle

Row | Compound | DSS colitis severity compared to vehicle control [1] | inhibition of forskolin-stimulated adenylate cyclase-dependent cAMP response (CB2 receptor) | weight loss compared to vehicle control ([2]; Rag1 −/− mice after Gαi2−/− T cell transfer) | quantitative histologic scoring of intestinal inflammation compared to vehicle control ([2]; sacrificed 8 weeks after T cell transfer)
1 | SR144528 | ameliorated DSS colitis |  |  | 
2 | COc1ccc(C(=O)c2c(C)n(CCN3CCOCC3)c3cc(I)ccc23)cc1 [AM630] | reduced DSS colitis severity |  |  | 
3 | CN1CCCCC1Cn1cc(C(=O)c2cc([N+](=O)[O-])ccc2I)c2ccccc21 (stereo not drawn) [AM1241] | significantly more severe | approximately 55% | lost significantly less weight | dramatically reduced for inflammation
